Experimental data taken from publication PMC5538626, “Structural and functional analysis of the GABARAP interaction motif (GIM)” (EMBO Reports, 2017).
Ends that are not written are not given here.

Columns and labels:
LC3C = target: T1, LC3C (Homo sapiens, UniProt Q9BXW4); assay: ITC titration of PLEKHM1-LIR peptide into LC3C; type: binding; settings: 25°C, pH 7.0
T1 construct: modified Ub-leader (ubiquitin fusion leader) (N); made in house; host or cells: E. coli NEB T7 Express
Experimental: (§1) The genes for the truncated LC3A^2–121, LC3C^8–125, GABARAP^2–117 and GABARAP‐L1^2–117 proteins were cloned into pET30ΔSE vector between the BamHI and XhoI sites using previously established protocols 38. The chimeric constructs of the PLEKHM1‐LIR attached to the LC3A, GABARAP and GABARAP‐L1 proteins were prepared by inserting the oligonucleotide sequence corresponding to the PLEKHM1‐LIR peptide (P^629[…]^638) and glycine–serine linker into the BamHI site of the pET30ΔSE vector, placing the PLEKHM1‐LIR at the N‐terminal of the mature chimeric protein (similar to 31, 38). For the expression of human LC3 and GABARAP proteins for ITC and NMR experiments, plasmids with appropriate modified Ub‐leaders in pET vectors were used 39. Gene, encoding PLEKHM1‐LIR peptide, was ordered as synthetic oligonucleotides (Eurofins Genomics GmbH) and cloned into the pET39_Ub63_ vector 39 by NcoI–BamHI restriction sites. After TEV cleavage, the resulting peptide has the amino acid sequence GAMG‐P^629[…]^642, where the first four residues (GAMG) are the cloning artefact.
(§2) The chimeric constructs were expressed as a His‐tag fusion protein in E. coli BL21(DE3) cells. The cells were induced with 0.3 mM IPTG at OD600 0.6 for 16 h at 26°C. The cell pellets were lysed using mechanical sonication in lysis buffer (20 mM Tris–HCl pH 9.0, 100 mM NaCl, 10 mM imidazole, supplemented with 0.1% Triton X‐100). The proteins were purified using Ni‐NTA beads (GE Healthcare) and the His‐tag was cleaved using thrombin (Invitrogen) at room temperature for 16 h. The last step was gel filtration chromatography using a Superdex S200/300 GL column (GE Healthcare). The proteins were concentrated using spin concentrators (Vivaspin). For ITC and NMR studies, the non‐labelled and stable isotopes labelled LC3 and GABARAP proteins were obtained based on the protocols described elsewhere 30, 39. Here, E. coli NEB T7 Express culture transformed with corresponding plasmids were grown till OD600 nm = 1.0 and protein expression was induced with 0.2 mM IPTG. The cultures were incubated at 25°C for 8–12 h before cell harvesting. Isolation and purification procedures were similar to those reported in Ref. 22, 40. Before experiments, all proteins and peptides were equilibrated with a buffer containing 50 mM Na2HPO4, 100 mM NaCl at pH 7.0, and supplied with 5 mM protease inhibitor cocktail.
(§3) The protocol for preparation of non‐labelled and ^13C,^15N‐labelled PLEKHM1‐LIR peptide was slightly modified to achieve highest yield of the peptide. The 50 ml M9 culture was inoculated with NEB T7 cell transformed with pET39_Ub63‐PLEKHM1‐LIR plasmid and grown overnight at 37°. The collected cells were resuspended in 2 l of either LB or M9 media contained 1.5 g ^15N‐labelled NH4Cl and 3.0 g of ^13C‐labelled glucose. The cultures were grown at 37° till A(600 nm) = 0.9 and supplied with 1 mM of IPTG to induce Ub63‐PLEKHM1‐LIR overexpression (3 h at 37°). After that cells were harvested by centrifugation, re‐suspended in buffer contained 50 mM Tris–HCl pH = 7.9, 200 mM NaCl, 5% glycerol, 0.1 mg/ml DNase A and 4 mM protease inhibitor cocktail. After cell lysis by French press, debris was removed by centrifugation and clear supernatant was applied onto the column contained Ni‐NTA Sepharose equilibrated with the loading buffer (50 mM Tris–HCl pH = 7.9, 250 mM NaCl, 1% glycerol and 20 mM imidazole). Elution was performed with 400 mM imidazole in the same buffer. An aliquot of pure Ub63‐PLEKHM1‐LIR fractions was further purified by gel filtration on Superdex75 26 × 60 column for control ITC and analytical size exclusion chromatography experiments, remaining fusion protein was processed with the TEV‐protease and PLEKHM1‐LIR peptide was purified to 95% purity by reverse Ni‐NTA chromatography and followed gel filtration on Superdex75 26 × 60 column. Peak maximum of peptide was detected at […] (void volume 115 ml). Pure peptide was concentrated in Amicon concentrators with cut‐off of 3 kDa (> 95% retention). […]

GABARAP = target: T2, GABARAP (Homo sapiens, UniProt O95166); assay: ITC titration of PLEKHM1-LIR peptides into GABARAP; type: binding; settings: ITC; for ΔH: VP-ITC, one-site model, 0.4 mM peptide into 0.020 mM protein, 50 mM Na2HPO4, 100 mM NaCl; for K D of GABARAP lower compared to LC3B / specificity GABARAP over LC3B: GABARAP vs LC3B
T2 construct: modified Ub-leader (ubiquitin fusion leader) (N); made in house; host or cells: E. coli NEB T7 Express
T2 sequence (O95166 whole entry, the tested form may be a part): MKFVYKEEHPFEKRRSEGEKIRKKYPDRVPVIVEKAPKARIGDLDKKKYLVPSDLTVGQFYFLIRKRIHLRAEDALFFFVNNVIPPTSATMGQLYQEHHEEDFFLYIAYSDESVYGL
Experimental: as §1, §2, §3

GABARAP-L2 = target: T3, GABARAP-L2 (Homo sapiens, UniProt P60520); assay: ITC titration of PLEKHM1-LIR peptide into GABARAP-L2; type: binding; settings: 25°C, pH 7.0
T3 construct: modified Ub-leader (ubiquitin fusion leader) (N); made in house; host or cells: E. coli NEB T7 Express
T3 sequence (P60520 whole entry, the tested form may be a part): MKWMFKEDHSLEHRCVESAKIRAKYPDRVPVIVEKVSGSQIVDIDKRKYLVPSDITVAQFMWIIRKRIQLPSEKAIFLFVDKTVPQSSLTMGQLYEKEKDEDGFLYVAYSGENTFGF
Experimental: as §1, §2, §3

[1] = test system: endogenous PLEKHM1:GABARAP complex; assay: Peptide competition in immunoprecipitation of endogenous PLEKHM1; settings: Plekhm1 +/+ MEF lysate, 50 μM peptide, cells treated 4 h KU-0063794 (10 μM) + chloroquine (20 μM); Fig 2D
[2] = VP-ITC, one-site model, 0.4 mM peptide into 0.020 mM protein, 50 mM Na2HPO4, 100 mM NaCl
[3] = 25°C, pH 7.0, listed as PLEKHM1-LIR

T1 sequence (Q9BXW4 whole entry, the tested form may be a part): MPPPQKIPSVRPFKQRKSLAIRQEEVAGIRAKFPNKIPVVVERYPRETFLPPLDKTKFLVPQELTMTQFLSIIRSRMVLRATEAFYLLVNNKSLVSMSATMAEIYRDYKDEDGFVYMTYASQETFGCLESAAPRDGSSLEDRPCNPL

## GAMGPQQEDEWVNVQYPD [PLEKHM1‐LIR WT]
LC3C; [2]
  ΔH: -8.3 ± 0.2 kcal/mol
LC3C
  KA: 0.29 ± 0.02 ×10^6 M^−1
  N (number of binding sites): 0.99 ± 0.02
  ΔG: -7.48 kcal/mol
  ΔS: −2.83 cal mol^−1 K^−1
  −T × ΔS: +0.84 kcal mol^−1
GABARAP; 25°C, pH 7.0
  ΔH: -10.6 ± 0.1 kcal/mol
  KA: 1.8 ± 0.1 ×10^6 M^−1
  N (number of binding sites): 1.00 ± 0.01
  ΔG: -8.54 kcal/mol
  ΔS: −6.92 cal mol^−1 K^−1
  −T × ΔS: +2.06 kcal mol^−1
GABARAP; [3]
  ΔH: -10.60 ± 0.1 kcal/mol
  KA: 1.8±0.1 ×10^6 M^−1
  ΔG: -8.54 kcal/mol
  ΔS: -6.92 cal mol^−1 K^−1
GABARAP; GABARAP vs LC3A
  K D of GABARAP lower compared to LC3A (times): approximately eight
GABARAP
  K D of GABARAP lower compared to LC3B / specificity GABARAP over LC3B: 11 fold
GABARAP; listed as PLEKHM1‐LIR peptide
  K D of GABARAP lower compared to LC3B / specificity GABARAP over LC3B: approximately 11 fold
GABARAP-L2; [2]
  ΔH: -6.1 ± 0.1 kcal/mol
GABARAP-L2
  KA: 1.07 ± 0.03 ×10^6 M^−1
  N (number of binding sites): 1.05 ± 0.01
  ΔG: -8.23 kcal/mol
  ΔS: +7.00 cal mol^−1 K^−1
  −T × ΔS: -2.09 kcal/mol
[1]
  effect on endogenous PLEKHM1:GABARAP interaction: blocked the interaction
